According to patent US20030004187A1, “Method for preventing dyskinesias” (priority 2001, published 2003):
“And” between values parts separate entries of the source, which are not always exact repeats. Identical values can stand only once.

What was measured:
[1] = test system: PD patients; conditions: cited from earlier work
[2] = test system: 6-OHDA-lesioned rats; conditions: systemic administration; cited from earlier work
[3] = test system: PD patients; conditions: published observation in PD patients; cited from earlier work
[4] = test system: MPTP monkey; test: Delay and duration of L-Dopa response; type: in vivo, cynomolgus (Macaca fascicularis) monkeys; set-up: Delay of L-Dopa response / Duration of L-Dopa response: unit not given here; conditions: for Delay of L-Dopa response / Duration of L-Dopa response: mean ± SEM
[5] = test system: MPTP monkey; test: Induction of L-Dopa-induced dyskinesias in de novo MPTP parkinsonian monkeys (dyskinetic score); type: in vivo, cynomolgus (Macaca fascicularis) monkeys; conditions: for Dyskinesia induction (in words): 4 weeks treatment, L-Dopa/benserazide 100/25 mg alone or plus CI-1041 10 mg/kg per os, FIG. 1
[6] = test system: MPTP-treated monkeys; conditions: 3 to 30 mg/kg, cited from earlier work
[7] = test system: 6-OHDA-lesioned hemiparkinsonian rat model; conditions: cited from earlier work
[8] = biological target: NR1A/2B cloned NMDA receptors (Homo sapiens, UniProt Q05586+Q13224); conditions: cited from earlier work
[9] = test system: MPTP monkey; test: Side effects and stereotypies observed during 1-month treatment; conditions: CI-1041 10 mg/kg per os with L-Dopa
Protocol: The experiments were performed in accordance with the standards of the Canadian Council on Animal care using eight female cynomolgus (Macaca fascicularis) monkeys weighing 3.0 to 3.5 kg. They were housed separately in individual observation cages equipped with an electronic motility monitoring system (Datascience, St. Paul, Minnesota) in a temperature-controlled room and exposed to a 12-hour light/dark cycle (lights on 6 AM-6 PM). They were fed once daily in the afternoon (certified primate chow and fruits), and water was provided ad libitum. […] The animals were scored several times a week using a disability scale described below, where the normal state extends from 0 to 2, and maximal disability is 16 points. […]
The severity of dyskinesias was also rated every 30 minutes for each body segment: the face, neck, trunk, arms, and legs in the following way: None=0; Mild=1; Moderate=2; Severe=3. The difference between mild, moderate, and severe dyskinesias for a given body segment is based on the assessment of the amplitude of the abnormal movements and the frequency (whether they are occasional, intermittent, or constant); each body segment being scored separately based on assessment of observation in the preceding half hour. […]

[10] = test system: MPTP monkey; test: Antiparkinsonian response, disability scale for MPTP monkey (parkinsonian score); type: in vivo, cynomolgus (Macaca fascicularis) monkeys
[11] = test system: MPTP monkey; test: Locomotor activity by electronic motility monitoring system; type: in vivo, cynomolgus (Macaca fascicularis) monkeys; conditions: FIG. 2B; maintained during the 4 weeks

Chain of NR1A/2B cloned NMDA receptors (Q13224 27-1484, other chains not shown): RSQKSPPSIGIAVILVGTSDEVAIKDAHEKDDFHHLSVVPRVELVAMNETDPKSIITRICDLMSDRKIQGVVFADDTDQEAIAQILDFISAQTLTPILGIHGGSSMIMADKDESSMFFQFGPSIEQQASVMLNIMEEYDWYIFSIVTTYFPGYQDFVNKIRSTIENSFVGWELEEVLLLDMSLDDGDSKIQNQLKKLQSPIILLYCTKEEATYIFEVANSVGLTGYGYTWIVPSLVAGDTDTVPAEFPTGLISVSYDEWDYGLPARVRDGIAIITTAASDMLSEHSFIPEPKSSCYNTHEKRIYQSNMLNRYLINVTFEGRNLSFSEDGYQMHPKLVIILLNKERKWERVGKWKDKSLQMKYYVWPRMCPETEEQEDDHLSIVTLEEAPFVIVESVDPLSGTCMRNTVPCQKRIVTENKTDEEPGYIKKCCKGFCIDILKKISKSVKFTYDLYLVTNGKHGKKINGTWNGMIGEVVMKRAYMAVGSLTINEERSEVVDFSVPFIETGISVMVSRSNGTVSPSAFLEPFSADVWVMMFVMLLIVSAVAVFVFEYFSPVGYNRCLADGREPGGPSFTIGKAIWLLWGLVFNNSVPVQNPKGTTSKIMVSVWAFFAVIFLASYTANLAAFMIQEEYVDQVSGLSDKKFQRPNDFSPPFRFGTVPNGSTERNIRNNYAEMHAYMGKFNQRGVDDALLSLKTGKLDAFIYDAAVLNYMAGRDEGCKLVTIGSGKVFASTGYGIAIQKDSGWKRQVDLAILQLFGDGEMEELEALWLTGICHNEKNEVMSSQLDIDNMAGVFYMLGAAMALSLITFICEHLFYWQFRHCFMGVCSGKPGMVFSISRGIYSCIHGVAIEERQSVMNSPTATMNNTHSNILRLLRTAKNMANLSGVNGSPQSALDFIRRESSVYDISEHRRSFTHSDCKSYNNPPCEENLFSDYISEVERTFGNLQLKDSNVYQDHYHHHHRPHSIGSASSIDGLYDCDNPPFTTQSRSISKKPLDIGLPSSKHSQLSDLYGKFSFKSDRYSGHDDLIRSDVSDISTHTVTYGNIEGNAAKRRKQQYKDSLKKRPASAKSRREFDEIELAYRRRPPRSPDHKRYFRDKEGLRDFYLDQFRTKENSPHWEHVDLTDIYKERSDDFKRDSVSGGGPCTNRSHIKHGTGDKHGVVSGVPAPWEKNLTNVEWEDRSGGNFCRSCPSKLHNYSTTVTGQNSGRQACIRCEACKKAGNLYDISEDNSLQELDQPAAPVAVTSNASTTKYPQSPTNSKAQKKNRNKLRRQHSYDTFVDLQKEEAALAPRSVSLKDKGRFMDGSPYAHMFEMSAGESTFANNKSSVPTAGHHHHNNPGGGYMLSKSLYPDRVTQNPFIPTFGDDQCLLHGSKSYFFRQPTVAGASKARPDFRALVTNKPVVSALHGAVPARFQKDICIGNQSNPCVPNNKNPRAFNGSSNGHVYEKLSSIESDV

## COc1ccc2c(c1)[C@]13CCCC[C@@H]1[C@H](C2)N(C)CC3 [dextromethorphan]
[1]; human, in vivo
  L-Dopa-induced dyskinesias in PD patients: reduced L-Dopa-induced dyskinesias

## C[C@]12N[C@H](Cc3ccccc31)c1ccccc12 [MK-801]
[2]
  L-Dopa-induced motor fluctuations: completely reversed and more interestingly prevented

## CCCN[C@H]1CCc2nc(N)sc2C1 [pramipexole]
[3]
  Sleep attacks: episodes of sudden onset of sleep

## O=c1[nH]c2ccc([S+]([O-])CCN3CCC(Cc4ccc(F)cc4)CC3)cc2o1 (centres unmarked) [CI-1041, 6-{2-[4-(4-fluoro-benzyl)-piperidin-1-yl]-ethanesulfinyl}-3H-benzooxazol-2-one]
[4]; trend for delayed response in first 2 weeks
  Effect of CI-1041 co-administration on delay and duration of the L-Dopa response (in words): not significantly affected
[5]; 10 mg/kg
  Dyskinesia induction (in words): prevented dyskinesias
[5]; listed as C-1041
  Dyskinesia induction (in words): completely prevented the induction of dyskinesias in three animals
[6]; in combination with L-Dopa
  Alteration in the antiparkinsonian effects of L-Dopa: did not produce a consistent alteration
[6]
  Antiparkinsonian activity when administered alone: did not exhibit any antiparkinsonian activity
[7]; peak rate and duration increased, maintained following 9 days of repeated co-administration
  Contraversive rotation induced by L-Dopa: potentiated the contraversive rotation
[7]; rat, in vivo
  Rotation induced by direct acting dopamine agonists SKF 38393 and quinpirole: potentiated rotation
  Rotation when given alone: increased both contraversive and ipsiversive rotations
[8]; allosteric modulation site
  Affinity, block of NR2B-containing NMDA receptors: 24 nM
[8]
  Selectivity for NR1A/2B cloned NMDA receptors: > 1000 fold
[9]
  Side effects / tolerability: well-tolerated and no emesis, ataxia, or hallucinations were observed

## N[C@@H](Cc1ccc(O)c(O)c1)C(=O)O [L-Dopa]
[4]; Day 7
  Delay of L-Dopa response: 47.3 ± 4.4^
  Duration of L-Dopa response: 221.3 ± 46.0^
[4]; Day 14
  Delay of L-Dopa response: 59.5 ± 17.2
  Duration of L-Dopa response: 189.3 ± 29.5^
[4]; Day 21
  Delay of L-Dopa response: 52.5 ± 10.3^
  Duration of L-Dopa response: 222.5 ± 24.6^
[4]; Day 28
  Delay of L-Dopa response: 50 ± 5.8
  Duration of L-Dopa response: 198.75 ± 25.5
[5]
  Dyskinesia induction (in words): moderate to severe
[5]; group mean ± SEM, n=4
  Persistent Dyskinesia (Max Score), Mean ± SEM: 7.1 ± 1.3
[5]; individual animal, Yes/None, 28 days treatment
  Persistent Dyskinesia: Yes
[5]; individual animal, maximum dyskinetic score, maximal score 21
  Persistent Dyskinesia (Max Score): 8.5 and 4 and 6 and 10
[1]; human, in vivo
  Prevalence of dyskinesias: 30-80%
[10]; FIG. 2A
  Parkinsonian scores as compared to the control (in words): significantly (P<0.01) lowered
[10]; group mean ± SEM, n=4, 28 days treatment
  Antiparkinsonian Efficacy (Min. Score), Mean ± SEM: 3.3 ± 0.2
[10]; individual animal, grade in words, 28 consecutive days of daily oral treatment
  Antiparkinsonian Efficacy: Good
[10]; individual animal, minimum parkinsonian score, maximal disability 16, 28 days treatment
  Antiparkinsonian Efficacy (Min. Score): 2.8 and 3.7 and 3.4 (2×)
[11]
  Locomotion as compared to control (in words): significant (P<0.01) increase in locomotion

## NC12CC3CC(CC(C3)C1)C2 [amantadine]
[1]; human, in vivo
  L-Dopa-induced dyskinesias in PD patients: reduced L-Dopa-induced dyskinesias
[1]; one study
  Maintenance of beneficial effects on motor response complications after treatment initiation: at least 1 year

## CCCN(CCC)CCc1cccc2c1CC(=O)N2 [ropinirole]
[3]
  Sleep attacks: episodes of sudden onset of sleep
